The source of these data is US20230148214A1, “INDAZOLES AND AZAINDAZOLES AS LRRK2 INHIBITORS” (ESCAPE Bio, Inc., priority 2020, published 2023).

The target in experiment [1] is T1, LRRK2 WT (Homo sapiens, UniProt Q5S007).
T1 construct: purchased Life Technologies PR8604B
In words: LRRK2 Kinase Activity Assay (LanthaScreen TR-FRET), wild type. It is filed as biochemical. Particulars: recombinant wild type LRRK2, 25 μM ATP, 400 nM LRRKtide, 60 min; class symbols. In outline:
(§1)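 IC50 fitted to the compound-dependent loss of TR-FRET signal. Each kinase form, wild type or G2019S, phosphorylated the fluorescein-tagged ERM-derived LRRKtide in the presence of ATP and compound dilutions over 60 min at room temperature; quench contained 10 mM EDTA and 2 nM anti-pERM antibody (final).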

Experiment [2] concerns the target T2, LRRK2 G2019S (Homo sapiens, UniProt Q5S007, G2019S).
T2 construct: purchased Life Technologies PV4881
As to the kind of experiment: LRRK2 Kinase Activity Assay (LanthaScreen TR-FRET), G2019S. It is filed as biochemical. Particulars: recombinant G2019S-LRRK2, 25 μM ATP, 400 nM LRRKtide, 60 min; class symbols. Put shortly: as §1

T1 sequence (Q5S007 whole entry): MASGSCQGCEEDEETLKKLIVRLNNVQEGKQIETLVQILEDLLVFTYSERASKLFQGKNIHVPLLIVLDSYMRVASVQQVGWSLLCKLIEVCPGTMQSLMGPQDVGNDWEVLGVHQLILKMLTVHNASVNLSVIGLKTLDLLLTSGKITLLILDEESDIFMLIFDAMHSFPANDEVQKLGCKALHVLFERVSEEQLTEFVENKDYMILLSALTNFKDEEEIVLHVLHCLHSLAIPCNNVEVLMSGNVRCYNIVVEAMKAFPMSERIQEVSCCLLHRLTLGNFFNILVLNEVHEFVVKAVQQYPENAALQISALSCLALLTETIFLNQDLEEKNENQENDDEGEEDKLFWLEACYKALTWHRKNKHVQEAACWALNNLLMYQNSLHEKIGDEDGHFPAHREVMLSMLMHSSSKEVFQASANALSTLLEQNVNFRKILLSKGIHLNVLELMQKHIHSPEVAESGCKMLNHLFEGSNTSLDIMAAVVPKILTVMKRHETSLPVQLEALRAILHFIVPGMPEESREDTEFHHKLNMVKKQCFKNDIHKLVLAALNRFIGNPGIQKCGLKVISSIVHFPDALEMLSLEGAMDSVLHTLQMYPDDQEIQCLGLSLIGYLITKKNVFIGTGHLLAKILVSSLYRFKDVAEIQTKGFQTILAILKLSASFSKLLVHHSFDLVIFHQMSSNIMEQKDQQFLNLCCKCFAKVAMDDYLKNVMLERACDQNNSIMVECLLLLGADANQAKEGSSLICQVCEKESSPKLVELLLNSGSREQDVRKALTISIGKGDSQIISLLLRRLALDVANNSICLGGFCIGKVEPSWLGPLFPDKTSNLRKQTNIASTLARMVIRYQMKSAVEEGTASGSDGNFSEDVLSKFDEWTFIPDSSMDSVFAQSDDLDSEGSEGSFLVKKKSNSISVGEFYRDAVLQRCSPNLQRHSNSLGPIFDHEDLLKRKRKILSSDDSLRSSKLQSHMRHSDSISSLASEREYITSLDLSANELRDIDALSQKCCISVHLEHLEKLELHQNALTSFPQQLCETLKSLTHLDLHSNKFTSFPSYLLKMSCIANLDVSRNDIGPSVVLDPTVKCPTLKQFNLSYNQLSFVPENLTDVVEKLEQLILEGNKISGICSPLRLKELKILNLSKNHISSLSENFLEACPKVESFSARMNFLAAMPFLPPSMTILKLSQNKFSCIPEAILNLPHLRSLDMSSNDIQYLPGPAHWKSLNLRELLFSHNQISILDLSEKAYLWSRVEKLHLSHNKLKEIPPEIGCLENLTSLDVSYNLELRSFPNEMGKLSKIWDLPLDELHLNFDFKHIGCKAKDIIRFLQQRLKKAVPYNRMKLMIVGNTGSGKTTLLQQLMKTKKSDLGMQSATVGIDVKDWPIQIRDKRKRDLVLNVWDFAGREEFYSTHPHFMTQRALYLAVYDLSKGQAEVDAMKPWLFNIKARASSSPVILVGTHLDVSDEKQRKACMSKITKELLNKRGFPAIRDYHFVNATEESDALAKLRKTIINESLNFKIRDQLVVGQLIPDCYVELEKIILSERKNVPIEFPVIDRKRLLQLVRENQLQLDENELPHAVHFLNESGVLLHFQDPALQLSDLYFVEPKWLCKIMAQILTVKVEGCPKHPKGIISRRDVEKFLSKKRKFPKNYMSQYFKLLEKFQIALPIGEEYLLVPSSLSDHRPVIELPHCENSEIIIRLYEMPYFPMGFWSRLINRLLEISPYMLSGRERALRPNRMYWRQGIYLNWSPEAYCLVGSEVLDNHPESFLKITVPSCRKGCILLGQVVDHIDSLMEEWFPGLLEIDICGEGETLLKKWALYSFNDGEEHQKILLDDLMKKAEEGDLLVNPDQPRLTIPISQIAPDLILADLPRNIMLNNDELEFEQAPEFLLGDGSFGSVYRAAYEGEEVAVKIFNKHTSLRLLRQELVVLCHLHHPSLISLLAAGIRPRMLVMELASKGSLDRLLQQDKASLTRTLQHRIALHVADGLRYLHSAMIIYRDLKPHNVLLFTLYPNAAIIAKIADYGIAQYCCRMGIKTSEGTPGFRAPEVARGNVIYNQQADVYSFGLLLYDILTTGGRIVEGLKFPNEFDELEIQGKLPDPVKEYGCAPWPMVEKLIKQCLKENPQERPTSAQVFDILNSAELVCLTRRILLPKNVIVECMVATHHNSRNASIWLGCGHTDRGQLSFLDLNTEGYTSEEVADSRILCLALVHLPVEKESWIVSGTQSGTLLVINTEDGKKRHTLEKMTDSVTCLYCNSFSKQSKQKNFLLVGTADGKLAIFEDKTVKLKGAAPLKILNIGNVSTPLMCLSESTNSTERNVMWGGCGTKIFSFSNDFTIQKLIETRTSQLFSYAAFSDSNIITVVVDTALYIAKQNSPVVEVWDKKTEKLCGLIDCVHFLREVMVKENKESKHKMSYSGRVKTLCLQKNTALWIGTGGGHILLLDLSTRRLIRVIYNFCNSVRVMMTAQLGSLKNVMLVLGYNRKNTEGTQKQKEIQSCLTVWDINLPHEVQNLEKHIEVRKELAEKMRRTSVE
T2 sequence (Q5S007 whole entry G2019S): as the sequence (Q5S007 whole entry) above, with G2019S counted along it

As for `C[C@H]1CCc2cc(C#N)ccc2[C@H]1Nc1ccc2[nH]nc(-c3cnco3)c2c1` (single isomer, unassigned) [Example 173, enantiomer 2, cis-6-Methyl-5-((3-(oxazol-5-yl)-1H-indazol-5-yl)amino)-5,6,7,8-tetrahydronaphthalene-2-carbonitrile], the IC50 in experiment [1] is 100 to 1000 nM; in experiment [2] it was < 100 nM.
For `C[C@@H]1CCc2cc(C#N)ccc2[C@H]1Nc1ccc2[nH]nc(-c3cnco3)c2c1` (single isomer, unassigned) [Example 174, enantiomer 1, trans-6-Methyl-5-((3-(oxazol-5-yl)-1H-indazol-5-yl)amino)-5,6,7,8-tetrahydronaphthalene-2-carbonitrile], in that order: < 100 nM and < 100 nM.
For `C[C@@H]1CCc2cc(C#N)ccc2[C@H]1Nc1ccc2[nH]nc(-c3cnco3)c2c1` (single isomer, unassigned) [Example 174, enantiomer 2, trans-6-Methyl-5-((3-(oxazol-5-yl)-1H-indazol-5-yl)amino)-5,6,7,8-tetrahydronaphthalene-2-carbonitrile], in that order: 100 to 1000 nM and < 100 nM.
For `N#Cc1ccc2c(c1)CCC2Nc1ccc2[nH]nc(-c3ccoc3)c2c1` (centres unmarked) [Example 10, 1-((3-(Furan-3-yl)-1H-indazol-5-yl)amino)-2,3-dihydro-1H-indene-5-carbonitrile], in that order: 100 to 1000 nM and < 100 nM.
On to `N#Cc1ccc2c(c1)CC[C@@H]2Oc1ccc2[nH]nc(I)c2c1` [Example 13, 1-((3-Iodo-1H-indazol-5-yl)oxy)-2,3-dihydro-1H-indene-5-carbonitrile], for which the values for the IC50 in experiment [1] and in experiment [2] were 100 to 1000 nM and < 100 nM, respectively.
For `N#Cc1cnc2c(c1)CC(F)(F)C2Nc1ccc2[nH]nc(-c3cnco3)c2c1` (centres unmarked) [Example 34, 6,6-Difluoro-7-((3-(oxazol-5-yl)-1H-indazol-5-yl)amino)-6,7-dihydro-5H-cyclopenta[b]pyridine-3-carbonitrile], in that order: 100 to 1000 nM and < 100 nM.
For the compound `N#Cc1ccc2c(c1)CCC[C@@H]2Nc1ccc2[nH]nc(-c3ccc4ncsc4c3)c2c1` [Example 59, 5-((3-(Benzo[d]thiazol-6-yl)-1H-indazol-5-yl)amino)-5,6,7,8-tetrahydronaphthalene-2-carbonitrile], the IC50 in experiment [1] and in experiment [2] was < 100 nM in each case.

For orientation: IC50 means the concentration that inhibits the measured activity by half.
